Measurements taken from PubChem BioAssay (NCI).
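Method: 48-hour compound exposure of cells in 96-well plates, five concentrations, linear interpolation of endpoints. The concentration for full growth arrest is given as TGI.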

What was measured:
Assay in all cases: NCI anticancer screen, dose series, 48 h
786-0 renal = system: 786-0 renal
A498 renal = system: A498 renal
ACHN renal = system: ACHN renal
BT-549 breast = system: BT-549 breast
CAKI-1 renal = system: CAKI-1 renal
CCRF-CEM leukemia = system: CCRF-CEM leukemia
COLO 205 colon = system: COLO 205 colon
DU-145 prostate = system: DU-145 prostate
EKVX NSCLC = system: EKVX NSCLC
HCT-116 colon = system: HCT-116 colon
HCT-15 colon = system: HCT-15 colon
HL-60(TB) leukemia = system: HL-60(TB) leukemia
HOP-62 NSCLC = system: HOP-62 NSCLC
HS 578T breast = system: HS 578T breast
HT29 colon = system: HT29 colon
IGROV1 ovarian = system: IGROV1 ovarian
K-562 leukemia = system: K-562 leukemia
KM12 colon = system: KM12 colon
M14 melanoma = system: M14 melanoma
MALME-3M melanoma = system: MALME-3M melanoma
MCF7 breast = system: MCF7 breast
MDA-MB-231 breast = system: MDA-MB-231 breast
MDA-MB-435 = system: MDA-MB-435
MDA-N = system: MDA-N
MOLT-4 leukemia = system: MOLT-4 leukemia
NCI-H226 lung = system: NCI-H226 lung
NCI-H23 lung = system: NCI-H23 lung
NCI-H522 lung = system: NCI-H522 lung
NCI/ADR-RES ovarian = system: NCI/ADR-RES ovarian
OVCAR-3 ovarian = system: OVCAR-3 ovarian
OVCAR-4 ovarian = system: OVCAR-4 ovarian
OVCAR-5 ovarian = system: OVCAR-5 ovarian
OVCAR-8 ovarian = system: OVCAR-8 ovarian
PC-3 prostate = system: PC-3 prostate
RPMI-8226 leukemia = system: RPMI-8226 leukemia
RXF 393 renal = system: RXF 393 renal
SF-268 CNS = system: SF-268 CNS
SF-295 CNS = system: SF-295 CNS
SK-MEL-2 melanoma = system: SK-MEL-2 melanoma
SK-MEL-28 melanoma = system: SK-MEL-28 melanoma
SK-MEL-5 melanoma = system: SK-MEL-5 melanoma
SK-OV-3 ovarian = system: SK-OV-3 ovarian
SN12C renal = system: SN12C renal
SNB-19 CNS = system: SNB-19 CNS
SNB-75 CNS = system: SNB-75 CNS
SR leukemia = system: SR leukemia
SW-620 colon = system: SW-620 colon
T-47D breast = system: T-47D breast
TK-10 renal = system: TK-10 renal
U251 CNS = system: U251 CNS
UACC-257 melanoma = system: UACC-257 melanoma
UO-31 renal = system: UO-31 renal
A549 NSCLC = system: A549 NSCLC
HCC-2998 colon = system: HCC-2998 colon
HOP-92 NSCLC = system: HOP-92 NSCLC
LOX IMVI melanoma = system: LOX IMVI melanoma
SF-539 CNS = system: SF-539 CNS
UACC-62 melanoma = system: UACC-62 melanoma

In the case of `Cc1cc(C(=O)CCCCOc2ccc(C3=NCCO3)cc2)c(C)n1C`, the TGI (786-0 renal) is reported as greater than 100 µM, the TGI (A498 renal) is reported as 86.8 µM and the TGI (ACHN renal) is reported as greater than 100 µM. The TGI (BT-549 breast) was greater than 100 µM, the TGI (CAKI-1 renal) was greater than 100 µM and the TGI (CCRF-CEM leukemia) was 46.6 µM. For the same molecule, the TGI (COLO 205 colon) was greater than 100 µM, the TGI (DU-145 prostate) was 79.8 µM and the TGI (EKVX NSCLC) was greater than 100 µM. It also gave a TGI (HCT-116 colon) greater than 100 µM, a TGI (HCT-15 colon) greater than 100 µM and a TGI (HL-60(TB) leukemia) of 23.7 µM. For the same molecule, the TGI (HOP-62 NSCLC) was greater than 100 µM, the TGI (HS 578T breast) was greater than 100 µM and the TGI (HT29 colon) was greater than 100 µM. The TGI (IGROV1 ovarian) was greater than 100 µM, the TGI (K-562 leukemia) was greater than 100 µM and the TGI (KM12 colon) was greater than 100 µM. The TGI (M14 melanoma) was greater than 100 µM, the TGI (MALME-3M melanoma) was greater than 100 µM and the TGI (MCF7 breast) was greater than 100 µM. It also gave a TGI (MDA-MB-231 breast) greater than 100 µM, a TGI (MDA-MB-435) of 76.6 µM and a TGI (MDA-N) of 88 µM. It also gave a TGI (MOLT-4 leukemia) of 34.4 µM, a TGI (NCI-H226 lung) of 98 µM and a TGI (NCI-H23 lung) greater than 100 µM. For the same molecule, the TGI (NCI-H522 lung) was greater than 100 µM, the TGI (NCI/ADR-RES ovarian) was greater than 100 µM and the TGI (OVCAR-3 ovarian) was greater than 100 µM. For the same molecule, the TGI (OVCAR-4 ovarian) was greater than 100 µM, the TGI (OVCAR-5 ovarian) was greater than 100 µM and the TGI (OVCAR-8 ovarian) was greater than 100 µM. The TGI (PC-3 prostate) was 59.7 µM, the TGI (RPMI-8226 leukemia) was 62.4 µM and the TGI (RXF 393 renal) was 72.8 µM. It also gave a TGI (SF-268 CNS) greater than 100 µM, a TGI (SF-295 CNS) greater than 100 µM and a TGI (SK-MEL-2 melanoma) greater than 100 µM. The TGI (SK-MEL-28 melanoma) was 83.1 µM, the TGI (SK-MEL-5 melanoma) was 34.9 µM and the TGI (SK-OV-3 ovarian) was greater than 100 µM. For the same molecule, the TGI (SN12C renal) was greater than 100 µM, the TGI (SNB-19 CNS) was greater than 100 µM and the TGI (SNB-75 CNS) was greater than 100 µM. For the same molecule, the TGI (SR leukemia) was 54.9 µM, the TGI (SW-620 colon) was greater than 100 µM and the TGI (T-47D breast) was 65.6 µM. For the same molecule, the TGI (TK-10 renal) was greater than 100 µM, the TGI (U251 CNS) was greater than 100 µM and the TGI (UACC-257 melanoma) was greater than 100 µM. It also gave a TGI (UO-31 renal) greater than 100 µM.
`COc1ccc2c(c1)OCC1Cc3ccccc3OC21` (stereo not given) showed a TGI (786-0 renal) greater than 100 µM, a TGI (A498 renal) greater than 10 µM and a TGI (A549 NSCLC) greater than 100 µM. For the same molecule, the TGI (ACHN renal) was greater than 100 µM, the TGI (BT-549 breast) was greater than 100 µM and the TGI (CAKI-1 renal) was greater than 100 µM. It also gave a TGI (CCRF-CEM leukemia) greater than 100 µM, a TGI (COLO 205 colon) greater than 100 µM and a TGI (DU-145 prostate) greater than 100 µM. It also gave a TGI (EKVX NSCLC) greater than 100 µM, a TGI (HCC-2998 colon) greater than 100 µM and a TGI (HCT-116 colon) greater than 100 µM. It also gave a TGI (HCT-15 colon) greater than 100 µM, a TGI (HL-60(TB) leukemia) greater than 100 µM and a TGI (HOP-62 NSCLC) greater than 100 µM. The TGI (HOP-92 NSCLC) was greater than 100 µM, the TGI (HT29 colon) was greater than 100 µM and the TGI (IGROV1 ovarian) was greater than 100 µM. For the same molecule, the TGI (K-562 leukemia) was greater than 100 µM, the TGI (KM12 colon) was greater than 100 µM and the TGI (LOX IMVI melanoma) was greater than 100 µM. The TGI (M14 melanoma) was greater than 100 µM, the TGI (MALME-3M melanoma) was greater than 100 µM and the TGI (MCF7 breast) was greater than 100 µM. For the same molecule, the TGI (MDA-MB-231 breast) was greater than 100 µM, the TGI (MDA-MB-435) was greater than 100 µM and the TGI (MDA-N) was greater than 10 µM. For the same molecule, the TGI (MOLT-4 leukemia) was greater than 100 µM, the TGI (NCI-H226 lung) was greater than 100 µM and the TGI (NCI-H23 lung) was greater than 100 µM. For the same molecule, the TGI (NCI-H522 lung) was greater than 100 µM, the TGI (NCI/ADR-RES ovarian) was greater than 100 µM and the TGI (OVCAR-3 ovarian) was greater than 100 µM. For the same molecule, the TGI (OVCAR-5 ovarian) was greater than 100 µM, the TGI (OVCAR-8 ovarian) was greater than 100 µM and the TGI (PC-3 prostate) was greater than 100 µM. It also gave a TGI (RPMI-8226 leukemia) greater than 100 µM, a TGI (SF-268 CNS) greater than 100 µM and a TGI (SF-295 CNS) greater than 100 µM. For the same molecule, the TGI (SF-539 CNS) was greater than 100 µM, the TGI (SK-MEL-2 melanoma) was greater than 100 µM and the TGI (SK-MEL-5 melanoma) was greater than 10 µM. The TGI (SK-OV-3 ovarian) was greater than 100 µM, the TGI (SN12C renal) was greater than 100 µM and the TGI (SNB-75 CNS) was greater than 100 µM. The TGI (SR leukemia) was greater than 100 µM, the TGI (SW-620 colon) was greater than 100 µM and the TGI (T-47D breast) was greater than 100 µM. The TGI (TK-10 renal) was greater than 100 µM, the TGI (U251 CNS) was greater than 10 µM and the TGI (UACC-257 melanoma) was greater than 100 µM. The TGI (UACC-62 melanoma) was greater than 100 µM and the TGI (UO-31 renal) was greater than 100 µM.
